This is an account of results in US6753337B2, “Alkynyl containing hydroxamic acid compounds as matrix metalloproteinase/tace inhibitors” (Wyeth Holdings Corporation, priority 1999, dated 2004).

The target of assay [1] is TNF-α converting enzyme (TACE) (Homo sapiens, UniProt P78536). The assay is described as follows: Test procedure for measuring TACE inhibition (fluorescent peptidyl substrate). The format is biochemical. The procedure:
Using 96-well black microtiter plates, each well receives a solution composed of 10 μL TACE (final concentration 1 μg/mL), 70 μL Tris buffer, pH 7.4 containing 10% glycerol (final concentration 10 mM), and 10 μL of test compound solution in DMSO (final concentration 1 μM, DMSO concentration <1%) and incubated for 10 minutes at room temperature. The reaction is initiated by addition of a fluorescent peptidyl substrate (final concentration 100 μM to each well and then shaking on a shaker for 5 sec.
The reaction is read (excitation 340 nm, emission 420 nm) for 10 min. and the increase in fluorescence over time is plotted as a linear line. The slope of the line is calculated and represents the reaction rate.
The mean (x±sem) of the control rate is calculated and compared for statistical significance (p<0.05) with drug-treated rates using Dunnett's multiple comparison test.

The next assay relates to THP-1 cells. The assay is described as follows: Human monocytic THP-1 cell differentiation assay for soluble proteins (THP-1 soluble protein assay). The format is cell-based. Conditions: LPS-stimulated THP-1 cells, soluble protein not given. From the text:
Mitogenic stimulation of THP-1 cells cause differentiation into macrophage like cells with concomitant secretion of tumor necrosis factor (TNF-α) and TNF receptor (TNF-R p75/80 and TNF-R p55160) and Interleukin-8 (IL-8), among other proteins. In addition, non-stimulated THP-1 cells shed both the p75/80 and the p55/60 receptors over time. The release of membrane bound TNF-α and possibly TNF-R p75/80 and TNF-R p55/60, but not IL-8, is mediated by an enzyme called TNF-α converting enzyme or TACE.
THP-1 cells (from ATCC) are a human monocytic cell line which were obtained from the peripheral blood of a person with acute monocytic leukemia. They can be grown in culture and differentiated into macrophage like cells by stimulation with mitogens.
Each vial of cells are cultured for about two weeks prior to being used for an assay and then are used for only 4 to 6 weeks to screen compounds.
Cell exposure to DMSO was limited to 0.1% final concentration. […] Compounds can be evaluated for their effect on basal (non-stimulated) shedding of the receptors by replacing the LPS with […] of THP-1 media.
Plates are placed into an incubator set at 5% CO2 and at 37° C. After 4 hours of incubation, […] of tissue culture supernatant (TCS) is removed for use in an TNF-α ELISA. Following 24 hours of incubation, […] of TCS is removed and used for analysis in TNF-R p75/80, TNF-R p55160 and IL-8 ELISAs.
In addition, at the 24 hours timepoint, and the cells for each treatment group are collected by resuspension in 500 μl/well of THP-1 media and transferred into a FACS tube. […] The samples are run on a Becton Dickinson FaxCaliber FLOW cytometry machine and the amount of dye taken up by each cell is measured in the high red wavelength (FL3). Only cells with compromised membranes (dead or dying) can take up PI. The percent of live cells is calculated by the number of cells not stained with PI, divided by the total number of cells in the sample. The viability values calculated for the drug treated groups were compared to the viability value calculated for the vehicle treated mitogen stimulated group (“vehicle positive control”) to determine the “percent change from control”. This “percent change from control” value is an indicator of drug toxicity.
The quantity of soluble TNF-α, TNF-R p75/80 and TNF-R p55160 and IL-8 in the TCS of the THP-1 cell cultures are obtained with commercially available ELISAs from R&D Systems, by extrapolation from a standard curve generated with kit standards. The number of cells that either take up or exclude PI are measured by the FLOW cytometry machine and visualized by histograms using commercially available Cytologic software for each treatment group including all controls.
Biological variability in the magnitude of the response of THP-1 cell cultures requires that experiments be compared on the basis of percent change from “vehicle positive control” for each drug concentration. Percent change in each soluble protein evaluated from the “vehicle positive control” was calculated for each compound concentration with the following formula: [formula]
For the soluble protein (TNF-α, p75/80, p55/60, IL-8) studies under stimulated conditions, the mean pg/ml of duplicate wells were determined and the results expressed as percent change from “vehicle positive control”. For the soluble protein (p75/80 and p55/60 receptors) studies under non-stimulated conditions, the mean pg/ml of duplicate wells were determined and the results expressed as percent change from “vehicle positive control” utilizing the following formula: [formula]
IC50 values for each compound are calculated by non-linear regression analysis using customized software utilizing the JUMP statistical package.
For the cell viability studies, the viabilities (PI exclusion) of pooled duplicate wells were determined and the results expressed as % change from “vehicle positive control”.

The target in another assay is MMP-9 (Homo sapiens, UniProt P14780). The assay is described as follows: MMP-9 inhibition (thiopeptide or fluorescent peptide substrate). Conditions: for IC50: read-out: MMP9 IC50; for MMP9 % inhibition: printed in the MMP9 IC50 column, concentration not given. The format is biochemical. How it is done: (§1) These standard pharmacological test procedures are based on the cleavage of a thiopeptide substrates such as Ac-Pro-Leu-Gly(2-mercapto-4-methyl-pentanoyl)-Leu-Gly-OEt by the matrix metalloproteinases MMP-1, MMP-13 (collagenases) or MMP-9 (gelatinase), which results in the release of a substrate product that reacts colorimetrically with DTNB (5,5′-dithiobis(2-nitro-benzoic acid)). The enzyme activity is measured by the rate of the color increase. The thiopeptide substrate is made up fresh as a 20 mM stock in 100% DMSO and the DTNB is dissolved in 100% DMSO as a 100 mM stock and stored in the dark at room temperature. Both the substrate and DTNB are diluted together to 1 mM with substrate buffer (50 mM HEPES pH 7.5, 5 mM CaCl2) before use. The stock of enzyme is diluted with buffer (50 mM HEPES, pH 7.5, 5 mM CaCl2, 0.02% Brij) to the desired final concentration. The buffer, enzyme, vehicle or inhibitor, and DTNB/substrate are added in this order to a 96 well plate (total reaction volume of 200 μl) and the increase in color is monitored spectrophotometrically for 5 minutes at 405 nm on a plate reader and the increase in color over time is plotted as a linear line.
Chain of MMP-9 (P14780 94-707): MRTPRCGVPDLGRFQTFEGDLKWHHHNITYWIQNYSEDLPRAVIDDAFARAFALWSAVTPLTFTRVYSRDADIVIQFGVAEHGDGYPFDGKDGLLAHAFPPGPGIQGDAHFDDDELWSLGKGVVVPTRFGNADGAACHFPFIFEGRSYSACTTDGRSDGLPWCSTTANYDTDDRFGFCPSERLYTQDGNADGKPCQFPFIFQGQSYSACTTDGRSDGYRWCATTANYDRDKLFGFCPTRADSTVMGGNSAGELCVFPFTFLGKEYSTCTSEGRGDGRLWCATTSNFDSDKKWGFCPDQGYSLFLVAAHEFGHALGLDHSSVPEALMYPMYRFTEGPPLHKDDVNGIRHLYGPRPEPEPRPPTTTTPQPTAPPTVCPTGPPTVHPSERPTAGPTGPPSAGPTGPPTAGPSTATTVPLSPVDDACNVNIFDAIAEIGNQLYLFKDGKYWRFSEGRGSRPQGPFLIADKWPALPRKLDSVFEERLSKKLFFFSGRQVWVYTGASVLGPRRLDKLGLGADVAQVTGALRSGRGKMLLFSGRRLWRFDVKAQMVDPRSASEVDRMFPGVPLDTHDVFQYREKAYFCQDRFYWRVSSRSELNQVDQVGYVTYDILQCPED
(§2) Alternatively, a fluorescent peptide substrate is used. In this test procedure, the peptide substrate contains a fluorescent group and a quenching group. Upon cleavage of the substrate by an MMP, the fluorescence that is generated is quantitated on the fluorescence plate reader. The assay is run in HCBC assay buffer (50 mM HEPES, pH 7.0, 5 mM Ca^+2, 0.02% Brij, 0.5% Cysteine), with human recombinant MMP-1, MMP-9, or MMP-13. The substrate is dissolved in methanol and stored frozen in 1 mM aliquots. For the assay, substrate and enzymes are diluted in HCBC buffer to the desired concentrations. Compounds are added to the 96 well plate containing enzyme and the reaction is started by the addition of substrate. The reaction is read (excitation 340 nm, emission 444 nm) for 10 min. and the increase in fluorescence over time is plotted as a linear line.
(§3) For either the thiopeptide or fluorescent peptide test procedures, the slope of the line is calculated and represents the reaction rate. The linearity of the reaction rate is confirmed (r^2>0.85). The mean (x±sem) of the control rate is calculated and compared for statistical significance (p<0.05) with drug-treated rates using Dunnett's multiple comparison test. Dose-response relationships can be generated using multiple doses of drug and IC50 values with 95% CI are estimated using linear regression.

The target in another assay is MMP-13 (Homo sapiens, UniProt P45452). The assay is described as follows: MMP-13 inhibition (thiopeptide or fluorescent peptide substrate). The format is biochemical. Conditions: for IC50: read-out: MMP13 IC50; for MMP13 % inhibition: MMP13 IC50, concentration not given. The procedure: The enzyme activity is measured by the rate of the color increase. The thiopeptide substrate is made up fresh as a 20 mM stock in 100% DMSO and the DTNB is dissolved in 100% DMSO as a 100 mM stock and stored in the dark at room temperature. Both the substrate and DTNB are diluted together to 1 mM with substrate buffer (50 mM HEPES pH 7.5, 5 mM CaCl2) before use. The stock of enzyme is diluted with buffer (50 mM HEPES, pH 7.5, 5 mM CaCl2, 0.02% Brij) to the desired final concentration.
as §2, with “substrate.” for “substrate. The reaction is read (excitation 340 nm, emission 444 nm) for 10 min. and the increase in fluorescence over time is plotted as a linear line.”
For either the thiopeptide or fluorescent peptide test procedures, the slope of the line is calculated and represents the reaction rate. […] The mean (x±sem) of the control rate is calculated and compared for statistical significance (p<0.05) with drug-treated rates using Dunnett's multiple comparison test.

The next assay deals with T1, MMP-1 (Homo sapiens, UniProt P03956).
T1 sequence (P03956 100-469): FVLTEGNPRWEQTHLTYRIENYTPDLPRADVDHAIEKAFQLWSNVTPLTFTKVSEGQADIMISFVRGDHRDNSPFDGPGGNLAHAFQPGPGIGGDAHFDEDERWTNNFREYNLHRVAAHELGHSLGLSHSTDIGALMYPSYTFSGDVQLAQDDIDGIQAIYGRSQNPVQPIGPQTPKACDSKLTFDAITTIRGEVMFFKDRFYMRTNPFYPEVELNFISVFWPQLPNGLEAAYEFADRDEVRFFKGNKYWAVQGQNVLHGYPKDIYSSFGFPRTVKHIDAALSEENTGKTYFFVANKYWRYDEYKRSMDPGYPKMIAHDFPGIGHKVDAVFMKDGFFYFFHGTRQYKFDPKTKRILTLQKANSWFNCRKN
The assay is described as follows: MMP-1 inhibition (thiopeptide or fluorescent peptide substrate). The format is biochemical. Particulars: for MMP1 % inhibition: printed in the MMP1 IC50 column, concentration not given; for IC50: read-out: MMP1 IC50. The procedure: as §1, §2, §3

Each structure is given as a SMILES string. Where a name gives a salt, the structure may show the parent alone.

Chain of TNF-α converting enzyme (TACE) (P78536 215-824): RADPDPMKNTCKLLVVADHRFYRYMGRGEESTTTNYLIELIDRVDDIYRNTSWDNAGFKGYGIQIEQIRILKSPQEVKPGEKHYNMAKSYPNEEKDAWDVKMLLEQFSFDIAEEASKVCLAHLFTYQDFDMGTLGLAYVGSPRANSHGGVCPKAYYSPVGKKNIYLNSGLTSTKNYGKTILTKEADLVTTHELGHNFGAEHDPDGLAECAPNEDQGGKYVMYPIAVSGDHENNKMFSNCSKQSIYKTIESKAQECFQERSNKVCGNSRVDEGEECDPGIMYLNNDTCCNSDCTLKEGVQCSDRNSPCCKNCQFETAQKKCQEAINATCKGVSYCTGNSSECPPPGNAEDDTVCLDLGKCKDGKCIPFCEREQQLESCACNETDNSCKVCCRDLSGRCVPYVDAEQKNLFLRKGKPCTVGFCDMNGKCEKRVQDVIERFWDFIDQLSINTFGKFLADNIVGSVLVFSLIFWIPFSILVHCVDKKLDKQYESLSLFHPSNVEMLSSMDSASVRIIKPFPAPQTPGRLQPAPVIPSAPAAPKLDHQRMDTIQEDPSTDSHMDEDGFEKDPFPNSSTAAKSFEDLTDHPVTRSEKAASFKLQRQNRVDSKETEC

The IC50 is the midpoint of a concentration-inhibition curve. A word on the inhibition: it is how much of the control response was suppressed. As for `CC#CCOc1ccc(S(=O)(=O)CC2(C(=O)NO)CCOCC2)cc1` [Example 18, 4-(4-But-2-ynyloxy-benzenesulfonylmethyl)-tetrahydro-pyran-4-carboxylic acid hydroxyamide], the IC50 in assay [1] was found to be 11.4 nM; at MMP-9 it was 1280 nM; on MMP-13, 98 nM. Moreover, the inhibition at 3 µM in the assay on THP-1 cells worked out at 45%.
Regarding `CC#CCOc1ccc([S+]([O-])CC2(C(=O)NO)CCOCC2)cc1` (stereo not shown) [Example 19, 4-(4-But-2-ynyloxy-benzenesulfinylmethyl)-tetrahydro-pyran-4-carboxylic acid hydroxyamide], the IC50 in assay [1] was 74 nM; on MMP-13, 1320 nM. The inhibition at 3 µM in the assay on THP-1 cells was 4%.
With `CC#CCOc1ccc(SC2(C(=O)NO)CCN(C(=O)OC(C)(C)C)CC2)cc1` [Example 14, 4-(4-But-2-ynyloxy-phenylsulfanyl)-4-hydroxycarbamoyl-piperidine-1-carboxylic acid tert-butyl ester], the inhibition at 1 µM in assay [1] came to 67%. Besides, the MMP9 % inhibition at MMP-9 worked out at 21%. The MMP13 % inhibition at MMP-13 was 32%. Further, the MMP1 % inhibition at MMP-1 turned out to be 26%.
On to `CC#CCOc1ccc(S(=O)(=O)CC2(C(=O)NO)CCN(C(=O)OC)CC2)cc1` [Example 39, Methyl 4-({[4-(2-butynyloxy)phenyl]sulfonyl}methyl)-4-[(hydroxyamino)-carbonyl]-1-piperidinecarboxylate], for which the IC50 stood at 11 nM in assay [1], 4280 nM at MMP-9, 809 nM on MMP-13 and 3770 nM on MMP-1.
In assay [1], `CC#CCOc1ccc(SC2(C(=O)NO)CCNCC2)cc1` [Example 15, 4-(4-But-2-ynyloxy-phenylsulfanyl)-piperidine-4-carboxylic acid hydroxyamide] returned an inhibition at 1 µM of 38%. On MMP-9, the MMP9 % inhibition was determined as 25%. This molecule showed an MMP13 % inhibition on MMP-13 of 24%. In addition, the MMP1 % inhibition at MMP-1 was 24%.
Turning to `CC#CCOc1ccc(S(=O)(=O)CC2(C(=O)NO)CCN(CC#CC)CC2)cc1` [Example 37, 1-(2-Butynyl)-4-({[4-(2-butynyloxy)phenyl]sulfonyl}methyl)-N-hydroxy-4-piperidinecarboxamide hydrochloride], the IC50 in assay [1] turned out to be 18 nM; on MMP-9 it was 8580 nM; on MMP-13 it was 1020 nM; at MMP-1, 8600 nM.
Regarding `O=C(NO)C1(S(=O)(=O)c2ccc(OCC#CCN3CCOCC3)cc2)CCN(Cc2ccc(Br)cc2)CC1` [Example 13, 1-(4-Bromo-benzyl)-4-[4-(4-morpholin-4-yl-but-2-ynyloxy)-benzenesulfonyl]-piperdine-4-carboxylic acid hydroxyamide], the IC50 is 882 nM in assay [1], 2000 nM on MMP-9 and 800 nM on MMP-13. Also, in the assay with THP-1 cells, 3 µM produced 69% inhibition.
On the same counts, the results for `CC#CCOc1ccc(SCC2(C(=O)NO)CCOCC2)cc1` [Example 17, 4-(4-But-2-ynyloxy-phenylsulfanylmethyl)-tetrahydro-pyran-4-carboxylic acid hydroxyamide] are 139 nM, 2300 nM, 946 nM and 0%.
